According to the supplement of paper PMC10307832:

How the values were obtained:
Assay in all cases: relative viability (nuclei count vs DMSO), 5 days (fraction); higher = more cells survive
[1] = compound: C1=CC2=C(C=C(C(=C2N=C1)O)N=NC3=CC4=C(C=C3)C=C(C=C4)S(=O)(=O)O)S(=O)(=O)O + Nc1ncn([C@H]2C[C@H](O)[C@@H](CO)O2)c(=O)n1 [Decitabine] (partner 2 µM)
Outline: (§1)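 Each reported value is a median over duplicate plates. It expresses relative viability: treated-well nuclei count divided by vehicle-well nuclei count. Lung cancer cell lines in 1536-well plates were dosed by pin tool a day after seeding, alone with one drug or with a fixed anchor-drug dose plus five library-drug doses (not always all listed) in √10 steps, and nuclei were counted after 5 days.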

AT-7519 + AZD7762 = compound: O=C(NC1CCNCC1)c1n[nH]cc1NC(=O)c1c(Cl)cccc1Cl [AT-7519] + NC(=O)Nc1cc(-c2cccc(F)c2)sc1C(=O)N[C@H]1CCCNC1 [AZD7762] (partner 0.2 µM)
Outline: as §1

AT-7519 + Trametinib = compound: O=C(NC1CCNCC1)c1n[nH]cc1NC(=O)c1c(Cl)cccc1Cl [AT-7519] + CC(=O)Nc1cccc(-n2c(=O)n(C3CC3)c(=O)c3c(Nc4ccc(I)cc4F)n(C)c(=O)c(C)c32)c1 [Trametinib] (partner 0.02 µM)
Outline: as §1

[2] = compound: C1=CC2=C(C=C(C(=C2N=C1)O)N=NC3=CC4=C(C=C3)C=C(C=C4)S(=O)(=O)O)S(=O)(=O)O + CS(=O)(=O)N1CCN(Cc2cc3nc(-c4cccc5[nH]ncc45)nc(N4CCOCC4)c3s2)CC1 [Pictilisib] (partner 1 µM)
Outline: as §1

| Cell Line | relative viability ([1]; first compound 0.08 µM) | relative viability ([1]; first compound 0.253 µM) | relative viability ([1]; first compound 0.8 µM) | relative viability ([1]; first compound 2.53 µM) | relative viability ([1]; first compound 8 µM) | relative viability (AT-7519 + AZD7762; first compound 0.01 µM) | relative viability (AT-7519 + AZD7762; first compound 0.03162 µM) | relative viability (AT-7519 + AZD7762; first compound 0.3162 µM) | relative viability (AT-7519 + AZD7762; first compound 1 µM) | relative viability (AT-7519 + Trametinib; first compound 0.01 µM) | relative viability (AT-7519 + Trametinib; first compound 0.03162 µM) | relative viability (AT-7519 + Trametinib; first compound 0.3162 µM) | relative viability (AT-7519 + Trametinib; first compound 1 µM) | relative viability ([2]; first compound 0.08 µM) | relative viability ([2]; first compound 0.253 µM) | relative viability ([2]; first compound 0.8 µM) | relative viability ([2]; first compound 2.53 µM) | relative viability ([2]; first compound 8 µM) |
| --- | --- | --- | --- | --- | --- | --- | --- | --- | --- | --- | --- | --- | --- | --- | --- | --- | --- | --- |
| 201T | 0.887 | 0.848 | 0.873 | 0.87 | 0.845 | 0.595 | 0.591 | 0.645 | 0.683 | 0.731 | 0.798 | 0.684 | 0.64 | 0.625 | 0.696 | 0.649 | 0.695 | 0.72 |
| A549 | 0.4 | 0.252 | 0.286 | 0.231 | 0.207 | – | – | – | – | – | – | – | – | 0.522 | 0.449 | 0.545 | 0.509 | 0.322 |
| A-427 | 0.558 | 0.554 | 0.534 | 0.547 | 0.551 | 0.791 | 0.627 | 0.883 | 0.502 | 0.728 | 0.71 | 0.716 | 0.338 | 0.665 | 0.731 | 0.629 | 0.672 | 0.709 |
| ABC-1 | 1.14 | 1.16 | 0.936 | 1.39 | 1.09 | 0.922 | 0.782 | 0.952 | 0.907 | – | – | – | – | 0.629 | 0.63 | 0.579 | 0.67 | 0.643 |
| BEN | 0.735 | 0.745 | 0.635 | 0.804 | 0.688 | 0.685 | 0.754 | 0.697 | 0.704 | 0.99 | 1.04 | 0.885 | 1.11 | 0.617 | 0.564 | 0.493 | 0.667 | 0.48 |
| CAL-12T | – | – | – | – | – | 0.701 | 0.623 | 0.58 | 0.354 | 0.403 | 0.289 | 0.217 | 0.131 | 0.351 | 0.409 | 0.366 | 0.36 | 0.323 |
| COR-L23 | 0.495 | 0.448 | 0.421 | 0.508 | 0.407 | – | – | – | – | 0.83 | 0.643 | 0.469 | 0.103 | 0.982 | 0.81 | 0.692 | 0.753 | 0.857 |
| COR-L 105 | 0.711 | 0.705 | 0.65 | 0.647 | 0.567 | – | – | – | – | 0.438 | 0.382 | 0.427 | 0.296 | 0.397 | 0.362 | 0.379 | 0.401 | 0.4 |
| Calu-6 | – | – | – | – | – | – | – | – | – | – | – | – | – | 0.903 | 1.01 | 0.955 | 0.974 | 0.838 |
| ChaGo-K-1 | 0.54 | 0.534 | 0.532 | 0.439 | 0.528 | 0.895 | 0.838 | 0.843 | 0.844 | 0.949 | 0.884 | 0.936 | 0.795 | 0.645 | 0.669 | 0.673 | 0.851 | 0.711 |
| EBC-1 | – | – | – | – | – | – | – | – | – | – | – | – | – | 0.511 | 0.333 | 0.439 | 0.391 | 0.499 |
| EKVX | 0.334 | 0.366 | 0.366 | 0.325 | 0.263 | 0.798 | 0.608 | 0.822 | 0.719 | 0.326 | 0.312 | 0.525 | 0.3 | 0.419 | 0.45 | 0.438 | 0.413 | 0.399 |
| EMC-BAC-2 | 1.03 | 0.991 | 0.953 | 1.05 | 0.98 | 1.09 | 1.1 | 1.03 | 1.19 | 0.92 | 0.835 | 0.845 | 0.376 | 0.514 | 0.566 | 0.522 | 0.555 | 0.349 |
| EPLC-272H | 0.415 | 0.372 | 0.37 | 0.438 | 0.375 | 0.321 | 0.21 | 0.302 | 0.336 | 0.309 | 0.312 | 0.275 | 0.22 | 0.354 | 0.321 | 0.291 | 0.312 | 0.104 |
| H3255 | 0.652 | 0.635 | 0.58 | 0.655 | 0.585 | 0.987 | 0.903 | 0.937 | 0.876 | 0.53 | 0.546 | 0.715 | 0.574 | 0.482 | 0.462 | 0.4 | 0.49 | 0.439 |
| HARA | 0.69 | 0.584 | 0.52 | 0.519 | 0.563 | 0.221 | 0.301 | 0.263 | 0.415 | 0.805 | 0.551 | 0.796 | 0.313 | 0.356 | 0.471 | 0.384 | 0.38 | 0.707 |
| HCC-15 | 0.723 | 0.689 | 0.637 | 0.625 | 0.596 | 1.18 | 1.37 | 1.17 | 1.14 | 0.404 | 0.371 | 0.374 | 0.24 | 0.839 | 0.766 | 0.635 | 0.804 | 0.636 |
| HCC-44 | 0.935 | 0.932 | 0.93 | 1.04 | 0.949 | 0.983 | 0.998 | 1.08 | 1 | 1.1 | 1.04 | 1.06 | 0.716 | 0.649 | 0.636 | 0.548 | 0.649 | 0.766 |
| HCC-78 | 0.796 | 0.671 | 0.756 | 0.708 | 0.589 | 0.609 | 0.636 | 0.616 | 0.815 | 0.688 | 0.712 | 0.963 | 0.46 | 0.206 | 0.178 | 0.221 | 0.219 | 0.118 |
| HCC-366 | 0.299 | 0.307 | 0.347 | 0.357 | 0.358 | 0.326 | 0.228 | 0.293 | 0.371 | 0.323 | 0.281 | 0.316 | 0.17 | 0.142 | 0.139 | 0.165 | 0.219 | 0.203 |
